Test results: US11479536B1 (King Abdulaziz University, priority 2022, dated 2022)

How the values were obtained:
HL60 cell line = assay: Cell viability assay of HL60 cell line (CellTiter-Blue); format: cell-based, human; conditions: HL60, 48 h incubation; read-out: IC50 against leukemia cell lines HL60
Procedure: HL60, K562, MV4-11 and NB4 were purchased from CLS Cell Line Service GmbH (Eppelheim, Germany). All cell lines were cultured in RPMI-1640 medium supplemented with 10% fetal bovine serum (FBS) (Thermo Fisher Scientific) and 0.1% ciprofloxacin (2.5 mg/ml; Cipla Limited; Mumbai, India), and were maintained at 37° C. in the presence of 21% O2 and 5% CO2.
Cell viability was determined using the CellTiter®-Blue Cell Viability Assay kit (Promega, Madison, Wis., USA). Approximately 10^4 cells were counted and plated in a 96-well plate in the presence of test compounds ranging from 0.01 to 10 or 20 μM in triplicate and were incubated for 48 h at 37° C. in a humidified incubator. After the incubation period was complete, 20 μL of CellTiter®-Blue Cell Viability Assay reagent was added to each well and incubated for additional 2 h for the development of florescence. Florescence was measured at Ex/Em 540/590 on SpectraMax® i3 Multi-Mode microplate reader (Molecular Devices, LLC; San Jose, Calif., USA) and plotted against drug concentration to determine the IC50 of the test compounds. The IC50 was obtained by non-linear regression model using GraphPad Prism 6.07 (GraphPad Software, Inc, USA).

MCF7 spheroids = assay: Mitochondrial membrane potential assay (JC-1), MCF7 spheroids; format: cell-based, human; conditions: 48 h post treatment at IC50, control 18.01±0.58%
Procedure: The mitochondrial membrane potential was investigated in response to the treatment with MAK compounds. This assay depends on the measurement of the aggregate fluorescence for Tetraethylbenzimidazolylcarbocyanine iodide (JC-1). This cationic dye accumulates in the energized mitochondria, and the increase in aggregate fluorescence indicates mitochondrial […] while the reduction indicates the depolarization state.
After growing the cells and treating them with MAK compound for 48 hours, 2 μM of JC-1 final concentration was added and the mixture was incubated for 1 hour at 37° C. in presence of 5% CO2. Then, the samples were analyzed using flow cytometry. Mean values and standard deviation of replicates were calculated in comparison to the control group.

T47D spheroids = assay: Reactive oxygen species (CellROX) assay, T47D spheroids; format: cell-based, human; conditions: 48 h treatment, CellROX Green
Procedure: The CELLROX (Invitrogen) assay was used to measure the level of reactive oxygen species (ROS) in live cells. […] The technique was used to investigate the capability of tested compounds to induce intracellular ROS. After forming the spheroids for 48 hours and treating them for additional 48 hours with MAK compound, spheroids were incubated in culture medium with 500 nM CellROX for 60 minutes at 37° C. in presence of 5% CO2, and the samples were immediately analyzed on flow cytometry using 488-nm excitation for the CellROX® Green.

[1] = Stability in mouse liver microsomes; format: in vitro ADME
Procedure: Both mouse and human liver microsomes were obtained from Merck KGaA, (Darmstadt, Germany), Cat. No. M9441 (Mouse liver microsomes) and M0317 (Human liver microsomes). Assays were conducted in triplicate in 96-deep well polypropylene plates. […] At five time points, reaction mixture aliquots were transferred to 96-shallow well stop plates on ice containing acetonitrile with 0.1 μM propafenone. […] Standard curves for test compound were generated using 5 concentrations in triplicate that were processed as above but with zero incubation time. Stop plates were centrifuged at 2000 g for 10 min and then supernatant aliquots were transferred to a Waters Aquity® UPLC 700 μL 96-well sample plate with cap mat (Waters, Milford, Mass.). The amount of compound remaining in the supernatant was quantified by LC/MS/MS using a Waters Xevo TQ MS (electrospray positive mode) coupled to a Waters Aquity® UPLC (BEH column, C18). Propafenone was used as the internal standard. GraphPad® Prism v 5.04 was used for nonlinear fitting of time course data to generate t1/2 values.

[2] = Stability in mouse plasma; format: in vitro ADME; conditions: 37° C., duration of the assay (5 h)
Procedure: The assay is conducted at 37° C. in triplicate. Test compounds or procaine (positive control) are tested at a final concentration of 1 μM in either 2.5% DMSO/CD-1 mouse plasma (Innovative Research, Novi, Mich.; sodium heparin added as anticoagulant; pH adjusted to 7.4 with 2N HCl on day of use) or 2.5% DMSO/PBS (pH 7.4: 136.9 mM NaCl, 2.68 mM KCl, 8.1 mM Na2HPO4, 1.47 mM KH2PO4, 0.9 mM CaCl2, 0.49 mM MgCl2). At seven time points, reaction mixture aliquots were transferred to 96-shallow well stop plates on ice containing acetonitrile with 0.1 μM propafenone. Samples were analyzed by LC/MS/MS on a Waters Xevo TQ instrument as described above using positive electrospray ionization. Assay acceptance criteria was 20% for all standards and 25% for the LLOQ. GraphPad® Prism v. 5.04 was used for nonlinear fitting of data to generate t1/2 values.

T47D cell line = assay: Cytotoxic assay (MTT) in monolayer model, T47D; format: cell-based; conditions: Homo sapiens, 48 h, read-out: IC50 cytotoxic assay against T47D, monolayer
Procedure: 1×10^6 cells of the human breast cancer cell lines MCF7 and T47D were seeded and grown at 37° C. with 5% CO2, in a Dulbecco's Modified Eagle Medium (DMEM) with 10% fetal bovine serum (Sigma). The cells were maintained until they reached the confluence over 90%. Then, the cells were subjected to the different treatment conditions before performing the assays.
The cytotoxic effects of MAK compounds were assessed against MCF7 and T47D cell lines using MTT cell viability assay. The cells were treated for 48 hours with different concentrations of each MAK compound and the control cells were subjected to the vehicle (0.1% DMSO). Then, 10% of 5 mg/mL MTT was added to each well containing treated or control cells, and mixture was incubated at 37° C. for 3 hours. After that, the MTT-containing media was replaced with 100 μL DMSO and incubated for 10 minutes at room temperature before measuring the absorbance for each well at 570 nm. According to the measured absorbance, the IC50 was calculated for each compound. All the experiments were performed in biological and experimental replicates.

| Compound | IC50 (HL60 cell line) | depolarized cells (mitochondrial membrane), mean±SEM (MCF7 spheroids) | ROS level, treatment vs control (T47D spheroids) | loss of compound in mouse liver microsomes ([1]; lacking NADPH) | half-life ([1]; male, CD-1, mouse, pooled liver microsomes, in the presence of NADPH, 37° C., read-out: stability to oxidative metabolism in mouse liver microsomes (t1/2)) | stability in mouse plasma [2] | IC50 (T47D cell line) |
| --- | --- | --- | --- | --- | --- | --- | --- |
| COc1cccc(C(=O)Nc2ccc(CC(=O)NCc3ccccc3)cc2)c1 [MAK-1, N-(4-(2-(benzylamino)-2-oxoethyl)phenyl)-3-methoxybenzamide] | 3.27 ± 0.15 µM | 24.77±0.65% | 4% | non-significant loss | 35 min | stable |  |
| O=C(Cc1ccc(NC(=O)c2cccc(Cl)c2)cn1)NCc1ccccc1 [MAK-6, N-(6-(2-(benzylamino)-2-oxoethyl)pyridin-3-yl)-3-chlorobenzamide] |  | 28.73±0.82% | 6% |  |  |  | 1.2 nM |
